Our source for the IC50, k off and Ki values is ChEMBL document CHEMBL1145055, “A novel class of nonpeptidic biaryl inhibitors of human cathepsin K” (J Med Chem, 2003).

Assay [1] concerns the target T1, Cathepsin K (Homo sapiens, UniProt P43235).
T1 sequence (P43235 whole entry): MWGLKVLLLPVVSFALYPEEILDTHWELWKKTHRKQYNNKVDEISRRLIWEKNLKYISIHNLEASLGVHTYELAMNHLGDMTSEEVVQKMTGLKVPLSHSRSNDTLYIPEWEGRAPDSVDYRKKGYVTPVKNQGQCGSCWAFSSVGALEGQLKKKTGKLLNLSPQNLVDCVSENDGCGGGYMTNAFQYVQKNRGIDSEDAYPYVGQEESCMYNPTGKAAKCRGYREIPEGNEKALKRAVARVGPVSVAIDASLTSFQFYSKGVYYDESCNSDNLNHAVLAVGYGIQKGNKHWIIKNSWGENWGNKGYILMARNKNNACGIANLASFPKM
The assay can be described thus: In vitro inhibitory activity against human cathepsin K, using 2 uM of Z -Leu-Arg-AMC as substrate.

Assay [2] has as its target T2, Cathepsin K (Homo sapiens) (UniProt P43235).
T2 sequence (whole entry): T1 sequence (P43235 whole entry)
The assay can be described thus: Pre steady state kinetic parameter K off was determined.

In assay [3] the target is T1, Cathepsin K. The assay can be described thus: In vitro inhibitory activity against Human Cathepsin K using 2 uM of Z -Leu-Arg-AMC as substrate.
Assay [4] deals with Cathepsin B (Homo sapiens, UniProt P07858). The assay can be described thus: In vitro inhibitory activity against human cathepsin B, using 2 uM of Z -Leu-Arg-AMC as substrate.
Assay [5] has as its target Procathepsin L (Homo sapiens, UniProt P07711). The assay can be described thus: In vitro inhibitory activity against human cathepsin L, using 2 uM of Z -Leu-Arg-AMC as substrate.
For assay [6], the target named is Cathepsin S (Homo sapiens, UniProt P25774). The assay can be described thus: In vitro inhibitory activity against human cathepsin S, using 2 uM of Z -Leu-Arg-AMC as substrate.
Cathepsin S, sequence (P25774 whole entry): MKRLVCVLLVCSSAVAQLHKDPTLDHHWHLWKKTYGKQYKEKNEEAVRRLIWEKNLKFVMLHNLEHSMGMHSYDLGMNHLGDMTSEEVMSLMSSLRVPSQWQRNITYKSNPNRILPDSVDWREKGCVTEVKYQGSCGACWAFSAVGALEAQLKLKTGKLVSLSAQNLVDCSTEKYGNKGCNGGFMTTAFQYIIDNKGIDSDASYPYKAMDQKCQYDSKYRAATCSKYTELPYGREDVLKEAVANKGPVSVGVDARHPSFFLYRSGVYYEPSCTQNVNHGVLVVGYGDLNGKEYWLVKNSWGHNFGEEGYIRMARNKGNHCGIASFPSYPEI
For assay [7], the species on record is Bos taurus. The assay can be described thus: cells.
Description: In vitro Bone resorption; measuring degradation of bovine bone by isolated osteoclasts

The structures appear in SMILES notation.

Procathepsin L, sequence (P07711 whole entry): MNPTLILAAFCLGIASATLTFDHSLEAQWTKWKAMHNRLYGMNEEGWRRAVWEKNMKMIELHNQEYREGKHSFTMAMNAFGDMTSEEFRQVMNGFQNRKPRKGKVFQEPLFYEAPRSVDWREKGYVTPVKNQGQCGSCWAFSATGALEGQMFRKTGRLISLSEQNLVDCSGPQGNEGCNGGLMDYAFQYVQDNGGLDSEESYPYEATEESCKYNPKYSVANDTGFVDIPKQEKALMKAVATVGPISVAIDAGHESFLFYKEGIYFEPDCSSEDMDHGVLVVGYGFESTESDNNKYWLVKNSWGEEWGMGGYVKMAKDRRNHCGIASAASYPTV

As for `CC(C)CC(C(=O)NC1(C#N)CC1)c1cccc(-c2ccc(N3CCNCC3)cc2)c1` (stereo not drawn), the 50% inhibitory concentration (IC50) in assay [1] amounted to 3 nM. For the same compound, in assay [2], the k off worked out at 0.0014 s⁻¹. This compound also displayed an inhibition constant (Ki) in assay [3] of 10 nM.

For `CC(C)CC(C(=O)NCC#N)c1cccc(-c2ccc(C3=CCNCC3)cc2)c1` (stereo not drawn), the 50% inhibitory concentration (IC50) was found to be 57 nM in assay [1]; 554 nM in assay [4]; 1680 nM in assay [5]; 652 nM in assay [6]; 267 nM in assay [7].

Take `CC(C)CC(C(=O)NCC#N)c1cncc(-c2ccccc2)c1` (stereo not drawn): the half-inhibitory concentration (IC50) was 142 nM in assay [1]; > 10000 nM in assay [4]; 825 nM in assay [5]; > 10000 nM in assay [6]; 1400 nM in assay [7].

Consider `CC(C)CC(C(=O)NCC#N)c1cccc(-c2ccc(C3CNCCN3)cc2)c1` (stereo in doubt; 43), for which the IC50 in assay [1] is 216 nM; in assay [4], > 10000 nM; in assay [5], > 10000 nM; in assay [6] it was > 10000 nM; in assay [7], 4870 nM.

For `CC(C)CC(C(=O)NCC#N)c1cccc(-c2ccc(N3CCN(C(C)(C)C)CC3)cc2)c1` (stereo not drawn), the IC50 is 20 nM in assay [1]; 379 nM in assay [4]; 1670 nM in assay [5]; 8340 nM in assay [6]; 340 nM in assay [7].

For `CC(C)CC(C(=O)NCC#N)c1cccc(-c2ccc(N3CCN(C)CC3)cc2)c1` (racemic), the half-maximal inhibitory concentration (IC50) in assay [1] is 8 nM; in assay [4], 3840 nM; in assay [5] it was 4640 nM; in assay [6] it was 1690 nM; in assay [7], 78 nM.

As for `CC(C)CC(C(=O)NCC#N)c1cccc(-c2ccc(C3CNCCO3)cc2)c1` (stereo not drawn), the IC50 in assay [1] is 614 nM; in assay [4], > 10000 nM; in assay [5], 919 nM; in assay [6], 3370 nM; in assay [7] it was 2810 nM.

As to `CC(=O)CN1CCN(c2ccc(-c3cccc(C(CC(C)C)C(=O)NCC#N)c3)cc2)CC1` (stereo not drawn), the IC50 in assay [1] was found to be 10 nM; in assay [4], 550 nM; in assay [5] it was 2160 nM; in assay [6] it was 2360 nM; in assay [7] it was 121 nM.
